Experimental findings from publication PMC6010071, “Blocking oestradiol synthesis pathways with potent and selective coumarin derivatives” (Journal of Enzyme Inhibition and Medicinal Chemistry, 2018) are described below.

Broadly, the inhibition is the drop in the measured response relative to a control, in per cent.

The structures appear in SMILES notation. Read-outs that look alike come from different tables or passages of the source. Where only a bound is given, the exact number is not on record here.

Common to all, as to format: biochemical
One assay concerns the target T1, recombinant human HSD2 (Homo sapiens, UniProt P37059).
T1 construct: made in house; host or cells: Sf9 insect cells
T1 sequence (P37059 1-387): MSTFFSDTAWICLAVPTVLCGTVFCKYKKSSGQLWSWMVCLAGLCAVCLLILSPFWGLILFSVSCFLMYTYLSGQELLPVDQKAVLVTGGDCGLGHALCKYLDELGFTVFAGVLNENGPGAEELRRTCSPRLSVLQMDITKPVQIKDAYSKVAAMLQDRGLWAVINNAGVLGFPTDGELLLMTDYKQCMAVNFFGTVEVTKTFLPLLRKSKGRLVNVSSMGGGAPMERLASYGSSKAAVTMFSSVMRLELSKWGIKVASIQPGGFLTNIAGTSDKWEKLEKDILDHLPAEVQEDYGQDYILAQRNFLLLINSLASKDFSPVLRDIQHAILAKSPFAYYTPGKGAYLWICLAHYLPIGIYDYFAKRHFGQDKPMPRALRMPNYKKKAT
The assay can be described thus: HSD2 inhibition, HPLC assay of [3H]-E2 to [3H]-E1 conversion. The note with it: read-out: HSD2 inhibition at 1 µM. The protocol:
The inhibition was determined by HPLC using recombinant human HSD1 and HSD2 proteins as described in a prior study. In short, recombinant human HSD1 and HSD2 were produced in Sf9-insect cells. […]. After incubation, the reaction was stopped by addition of […] 10% trichloroacetic acid per sample. After incubation the substrate and the product of enzymatic conversion [3H]-E1 and [3H]-E2 were separated and quantified by HPLC (Alliance 2790, Waters, Milford, MA) connected to an online counter (Packard Flow Scintillation Analyser; Perkin Elmer Inc., Waltham, […]). The ratio of [3H]-E1 converted to [3H]-E2 or vice versa determines the conversion percentage of the samples. Inhibition was measured in three concentrations (100 nM, 1, and 5 µM) in order to follow the progression of inhibition efficiencies. Inhibition efficiencies of the tested inhibitors were calculated by comparing the conversion percentages of the samples including inhibitors with those of conversion controls (without inhibitors).

The target in assay [1] is T2, MAO-B (Homo sapiens, UniProt P27338).
T2 construct: purchased Sigma-Aldrich (St. Louis, MO)
T2 sequence (P27338 1-520): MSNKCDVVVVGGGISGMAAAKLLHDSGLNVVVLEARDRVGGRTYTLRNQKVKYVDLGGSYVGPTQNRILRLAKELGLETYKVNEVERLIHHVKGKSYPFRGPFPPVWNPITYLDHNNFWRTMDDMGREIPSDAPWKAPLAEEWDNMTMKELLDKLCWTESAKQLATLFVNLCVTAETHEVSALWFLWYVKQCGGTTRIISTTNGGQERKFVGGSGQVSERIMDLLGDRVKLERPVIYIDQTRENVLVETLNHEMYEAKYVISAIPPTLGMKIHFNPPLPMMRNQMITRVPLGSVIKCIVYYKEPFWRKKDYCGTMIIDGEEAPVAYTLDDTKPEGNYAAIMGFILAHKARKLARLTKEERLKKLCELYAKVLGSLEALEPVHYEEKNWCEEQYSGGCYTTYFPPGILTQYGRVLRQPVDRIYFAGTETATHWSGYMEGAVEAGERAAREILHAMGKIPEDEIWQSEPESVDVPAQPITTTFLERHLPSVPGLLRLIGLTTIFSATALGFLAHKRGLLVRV
The assay can be described thus: MAO-B inhibition, continuous spectrophotometric assay. Conditions: single point, read at 2 h. The protocol:
(§1) The protocol of continuous spectrophotometric assay by Holt et al. was first used to determine the activity of the proteins. […] The protein was first incubated for 30 min at 37 °C in the chromogenic solution and then the substrate tyramine was introduced at 0.5 mM final plate concentration completing the assay volume. […] The assay should produce absorbance change of ∼0.35[23]. […] These protein concentrations were selected to be used to analyse the molecules 1–9. The analysis conditions followed the above-described assay protocol[23] and the activity of tested molecules was measured at 100 µM for MAO-A and at 10 µM for MAO-B. The analysis was performed as single point measurements and the signal was read by the same instrument at the expected assay maximum indicated by the activity measurements, at 30 min for MAO-A and at 2 h for MAO-B, respectively. […] The observed activity was calculated as inhibition percentage (Table 1).

Another assay concerns the target T3, MAO-A (Homo sapiens, UniProt P21397).
T3 construct: purchased Sigma-Aldrich (St. Louis, MO)
T3 sequence (P21397 1-527): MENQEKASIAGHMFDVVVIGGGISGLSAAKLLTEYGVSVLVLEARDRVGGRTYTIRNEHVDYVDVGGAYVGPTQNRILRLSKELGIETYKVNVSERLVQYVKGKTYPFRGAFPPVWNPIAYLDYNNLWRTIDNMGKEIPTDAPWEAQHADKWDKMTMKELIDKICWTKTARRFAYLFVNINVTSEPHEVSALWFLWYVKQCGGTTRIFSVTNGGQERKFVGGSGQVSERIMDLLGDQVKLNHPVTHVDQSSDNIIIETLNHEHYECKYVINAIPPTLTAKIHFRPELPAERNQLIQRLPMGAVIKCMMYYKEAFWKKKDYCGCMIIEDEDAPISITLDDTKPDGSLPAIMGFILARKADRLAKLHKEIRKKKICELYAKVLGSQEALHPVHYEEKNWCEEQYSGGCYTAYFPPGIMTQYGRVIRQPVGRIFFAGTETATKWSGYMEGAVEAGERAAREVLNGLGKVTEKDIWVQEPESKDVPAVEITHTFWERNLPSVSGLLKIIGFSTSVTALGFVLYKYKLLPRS
Put plainly: MAO-A inhibition, continuous spectrophotometric assay. The note with it: read-out: MAO-A inhibition at 100 µM. The procedure:
as §1

Assay [2] has as its target T2, MAO-B. The assay can be described thus: MAO-B inhibition, continuous spectrophotometric assay.
[3] abbreviates: 10 µM, read-out: MAO-B inhibition at 10 µM.
Where [4] appears, read: 100 µM, single point, read at 30 min.
The mark [5] stands for this setting: duplicated dilution series, read-out: MAO-B inhibition pIC50 (converted).
[6] abbreviates: restated from pIC50 above 6, read-out: MAO-B inhibition IC50.

As to `COc1ccc(-c2cc3cccc(O)c3oc2=O)cc1` [Compound 1, 8-hydroxy-3–(4-methoxyphenyl)-2H-chromen-2-one], the inhibition at 1 µM at recombinant human HSD2 came out at 27%. The inhibition at 10 µM on MAO-B [1] (setting [3]) is 48%. Moreover, at MAO-A (setting [4]), the inhibition at 100 µM was found to be 4%.
As for `O=c1oc2ccc(O)cc2cc1-c1ccc(O)cc1` [Compound 2, 6-hydroxy-3–(4-hydroxyphenyl)-2H-chromen-2-one], on recombinant human HSD2, the inhibition at 1 µM turned out to be 7%. Moreover, the inhibition at 10 µM at MAO-B [1] (read-out: MAO-B inhibition at 10 µM, 10 µM) was 16%. Moreover, on MAO-A, the inhibition at 100 µM is -6%.
On to `O=c1oc2ccccc2cc1-c1cccc(O)c1` [Compound 3, 3–(3-hydroxyphenyl)-2H-chromen-2-one], for which the inhibition at 1 µM on recombinant human HSD2 worked out at 42%. Moreover, the inhibition at 10 µM at MAO-B [1] (setting [3]) was 50%. Further, at MAO-A (setting [4]), the inhibition at 100 µM was found to be 4%.
For the molecule `O=c1oc2ccc(Cl)cc2cc1-c1cccc(O)c1` [Compound 4, 6-chloro-3–(3-hydroxyphenyl)-2H-chromen-2-one], the inhibition at 1 µM on recombinant human HSD2 was 16%. Besides, on MAO-B [1] (setting [3]), the inhibition at 10 µM is 64%.
Regarding `COc1ccc2cc(-c3ccc(O)c(F)c3)c(=O)oc2c1` [Compound 6, 3–(3-fluoro-4-hydroxyphenyl)-7-methoxy-2H-chromen-2-one], the figures for the IC50 at MAO-B [2] (setting [5]) and at MAO-B [2] (setting [6]) were 407 nM and less than 1000 nM, respectively. Moreover, the inhibition at 1 µM at recombinant human HSD2 is 31%. Besides, the inhibition at 100 µM at MAO-A (setting [4]) was -1%.
Consider `COc1ccc2oc(=O)c(-c3ccc(O)c(F)c3)cc2c1` [Compound 7, 3–(3-fluoro-4-hydroxyphenyl)-6-methoxy-2H-chromen-2-one], for which the IC50 was 851 nM on MAO-B [2] (setting [5]) and less than 1000 nM at MAO-B [2] (setting [6]). Moreover, the inhibition at 1 µM at recombinant human HSD2 worked out at 13%. For the same molecule, the inhibition at 100 µM on MAO-A (setting [4]) was -11%.
